Test results published in PubChem BioAssay AID1963840 (Molecular Pharmacology Branch, DTP, NCI, 2024).
pIC50: −log10 of the molar value. Several values for one entry are separate records, joined by “and”; a condition that tells them apart may be missing. Equal values may be shown once.

System: 695427-040-R-J1-PDC complex spheroid viability
Assay: Anticancer human tumor 695427-040-R-J1-PDC patient-derived colon adenocarcinoma cell line growth inhibition [POLQ]
Settings: for viability, T/C: stronger effect = lower value
Protocol: Multicellular complex tumor spheroid response to Polymerase (POL) inhibitors (novobiocin, ART-558, RP6685) in combination with a variety of drugs and investigational agents in selected tumor cell lines
The POL inhibitors (novobiocin, ART-558, and RP6685) were evaluated both individually and in combination with standard of care and investigational anticancer small molecules within a complex spheroid model of solid tumors. . Complex spheroids include a stromal component modeled by human endothelial cells (HUVEC) and fibroblasts modeled by human mesenchymal stem cells (MSCs). The concentration ranges selected for each drug and investigational agent were based upon clinically achievable concentrations if the clinical Cmax of the agent was known.
Compounds. The drugs and investigational agents: novobiocin (NSC847541), ART-558 (NSC835418), RP-6685 (NSC848927), peposertib (NSC802822), ceralasertib (NSC780249), elimusertib (NSC800525), camonsertib (NSC841442), AZD-1390 (NSC803789), olaparib (NSC753686), talazoparib (NSC767125), rucaparib (NSC756644), sotorasib (NSC818433), MRTX-1133 (NSC836407), SN-38 (NSC673596), topotecan (NSC609699), epotoside (NSC141540), doxorubicin (NSC123127), gemcitabine (NSC613327), 5-fluorouracil (NSC19893), paclitaxel (NSC125973), vemurafenib (NSC761431), MSA-2 (NSC828583), SN-011 (NSC837082), adavosertib (NSC754352), prexasertib (NSC758257), carboplatin (NSC241240) and oxaliplatin (NSC266046), were obtained from the National Cancer Institute (NCI) Developmental Therapeutics Program Chemical Repository (21). The FDA-approved anticancer drug set is available from the Developmental Therapeutics Program at https://dtp.cancer.gov/organization/dscb/obtaining/. […] The stock solutions were prepared in dimethyl sulfoxide (DMSO, Sigma-Aldrich, St. Louis, MO, cat. D2650), except for the platinum compounds which were prepared in saline (Quality Biological, Gaithersburg, MD, cat. 114-055-101), at 800-fold the tested concentration and stored at -70 degrees C prior to their use. All drugs and investigational agents were tested over a range starting from a high concentration at or near the clinical Cmax and decreasing in half-log increments. If the clinical Cmax for an agent had not been determined, the highest concentration tested was 10 microM, except for SN-38, which was tested at a high concentration of 1 microM.
Cell Culture. All cells were maintained in an incubator at 37 degrees C and 5% CO2 with 95% humidity. The PDC lines were cultured according to standard operating procedures established by the NCI PDMR (https://pdmr.cancer.gov). Table 3 of the manuscript, lists the cell lines along with the number of the three cell types plated to form the mct-spheroids and media for tumor cell growth. After thawing, all PDC lines, except 997537-175-T-J1-PDC and 415267-285-R-J2-PDC, were cultured in Matrigel-coated flasks prepared with a working solution of 1X Ham's F-12 nutrient mix, without supplementation (Thermo Fisher Scientific, cat. 11765054), 100 U/mL penicillin-streptomycin (Thermo Fisher Scientific, cat. 15140122), and 2.5% Matrigel (Corning Inc., Corning, NY, cat. 354248) for the first three passages. The two PDC lines 997537-175-T-J1-PDC and 415267-285-R-J2-PDC were cultured on uncoated flasks. The 857933-349-R-J2-PDC line was cultured in 6C/Colon 1B media containing advanced DMEM/F-12 (Thermo Fisher Scientific, cat. 12634028), 10 mM HEPES (Thermo Fisher Scientific, cat. 15630080), 1X GlutaMAX supplement (Thermo Fisher Scientific, cat. 35050061), 0.1 mg/mL primocin (InvivoGen, San Diego, CA, cat. ant-pm-2), 10% defined fetal bovine serum, heat inactivated (HyClone Laboratories Inc., Logan, UT, cat. SH30070.03HI), 50% L-WRN conditioned media (ATCC, cat. CRL-3276), 1.25 mM N-Acetyl-L-cysteine (Sigma-Aldrich, cat. A9165), 10 mM nicotinamide (Sigma-Aldrich, cat. N0636), 1X B-27 supplement (Thermo Fisher Scientific, cat. 17504044), 1X N-2 supplement (Thermo Fisher Scientific, cat. […]
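Note: spheroids exposed to compounds for seven days.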
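Throughout, for viability, T/C: 100% = DMSO vehicle control viability.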

For `O=C(Nc1ccc(O)c(NS(=O)(=O)c2ccc(F)cc2)c1)c1ccc(-c2ccccc2)cc1`, the viability, T/C (compound 0.0316 µM) was 112% and 106% (2×), the viability, T/C (compound 0.1 µM) was 94.9% and 102% and 99.2% and the viability, T/C (compound 0.316 µM) was 99.2% and 96.5% and 105%. For the same compound, the viability, T/C (compound 1 µM) was 106% and 111% and 105%, the viability, T/C (compound 3.16 µM) was 102% and 101% and 110% and the viability, T/C (compound 10 µM) was 94% and 98.5% and 90.2%. It also gave a pIC50 (curve of compound) of under 5.00.

For `C#Cc1c(F)ccc2cc(O)cc(-c3ncc4c(N5CC6CCC(C5)N6)nc(OCC56CCCN5CC(F)C6)nc4c3F)c12` (stereo not drawn) + Nc1ccc(C#CCN(C(=O)Cc2ncc(C(F)(F)F)cc2C(F)(F)F)c2ccc(F)cc2)nn1, the pIC50 (curve of first compound, second compound 0.0316 µM) was under 5.00, the pIC50 (curve of first compound, second compound 0.1 µM) was under 5.00 and the pIC50 (curve of first compound, second compound 0.316 µM) was under 5.00. The pIC50 (curve of first compound, second compound 1 µM) was under 5.00, the pIC50 (curve of first compound, second compound 3.16 µM) was under 5.00 and the pIC50 (curve of first compound, second compound 10 µM) was under 5.00. It also gave a viability, T/C (second compound 0.0316 µM, first compound 0.0316 µM) of 104%, a viability, T/C (second compound 0.0316 µM, first compound 0.1 µM) of 102% and a viability, T/C (second compound 0.0316 µM, first compound 0.316 µM) of 106%. It also gave a viability, T/C (second compound 0.0316 µM, first compound 1 µM) of 97.9%, a viability, T/C (second compound 0.0316 µM, first compound 3.16 µM) of 102% and a viability, T/C (second compound 0.0316 µM, first compound 10 µM) of 88.7%. It also gave a viability, T/C (second compound 0.1 µM, first compound 0.0316 µM) of 118%, a viability, T/C (second compound 0.1 µM, first compound 0.1 µM) of 96.9% and a viability, T/C (second compound 0.1 µM, first compound 0.316 µM) of 105%. It also gave a viability, T/C (second compound 0.1 µM, first compound 1 µM) of 98.9%, a viability, T/C (second compound 0.1 µM, first compound 3.16 µM) of 96.9% and a viability, T/C (second compound 0.1 µM, first compound 10 µM) of 89.4%. The viability, T/C (second compound 0.316 µM, first compound 0.0316 µM) was 109%, the viability, T/C (second compound 0.316 µM, first compound 0.1 µM) was 105% and the viability, T/C (second compound 0.316 µM, first compound 0.316 µM) was 92.3%. It also gave a viability, T/C (second compound 0.316 µM, first compound 1 µM) of 101%, a viability, T/C (second compound 0.316 µM, first compound 3.16 µM) of 99.4% and a viability, T/C (second compound 0.316 µM, first compound 10 µM) of 78.9%. For the same compound, the viability, T/C (second compound 1 µM, first compound 0.0316 µM) was 107%, the viability, T/C (second compound 1 µM, first compound 0.1 µM) was 95.5% and the viability, T/C (second compound 1 µM, first compound 0.316 µM) was 97.2%. It also gave a viability, T/C (second compound 1 µM, first compound 1 µM) of 108%, a viability, T/C (second compound 1 µM, first compound 3.16 µM) of 103% and a viability, T/C (second compound 1 µM, first compound 10 µM) of 79.6%. It also gave a viability, T/C (second compound 3.16 µM, first compound 0.0316 µM) of 94.5%, a viability, T/C (second compound 3.16 µM, first compound 0.1 µM) of 94.9% and a viability, T/C (second compound 3.16 µM, first compound 0.316 µM) of 105%. The viability, T/C (second compound 3.16 µM, first compound 1 µM) was 86.7%, the viability, T/C (second compound 3.16 µM, first compound 3.16 µM) was 96% and the viability, T/C (second compound 3.16 µM, first compound 10 µM) was 84.6%. For the same compound, the viability, T/C (second compound 10 µM, first compound 0.0316 µM) was 92%, the viability, T/C (second compound 10 µM, first compound 0.1 µM) was 104% and the viability, T/C (second compound 10 µM, first compound 0.316 µM) was 86.9%. The viability, T/C (second compound 10 µM, first compound 1 µM) was 83.6%, the viability, T/C (second compound 10 µM, first compound 3.16 µM) was 73.7% and the viability, T/C (second compound 10 µM, first compound 10 µM) was 69.3%.

In the case of `CC[C@@]1(O)C(=O)OCc2c1cc1n(c2=O)Cc2cc3c(CN(C)C)c(O)ccc3nc2-1`, the viability, T/C (compound 0.000316 µM) was 94.3% and 106% and 102%, the viability, T/C (compound 0.001 µM) was 105% and 101% and 103% and the viability, T/C (compound 0.00316 µM) was 102%. For the same compound, the viability, T/C (compound 0.01 µM) was 96.3% and 98.2% and 106%, the viability, T/C (compound 0.0316 µM) was 101% and 113% and 103% and the viability, T/C (compound 0.1 µM) was 94.8% and 111% and 89.7%. For the same compound, the pIC50 (curve of compound) was under 7.00.

For `Nc1ccc(C#CCN(C(=O)Cc2ncc(C(F)(F)F)cc2C(F)(F)F)c2ccc(F)cc2)nn1`, the viability, T/C (compound 0.0316 µM) was 91.6% [middle of 13 runs], the viability, T/C (compound 0.1 µM) was 102% [middle of 13 runs] and the viability, T/C (compound 0.316 µM) was 101% [middle of 13 runs]. For the same compound, the viability, T/C (compound 1 µM) was 101% [middle of 13 runs], the viability, T/C (compound 3.16 µM) was 102% [middle of 13 runs] and the viability, T/C (compound 10 µM) was 105% [middle of 12 runs]. The pIC50 (compound alone, run of 11/06/2023) was under 5.00.
